# Reference: patent publication US20050112573A1, “Method of detecting toxic substance” (priority 2001, published 2005)
# Test system: yeast genes (level of expressed mRNA)
# Test: DNA chip analysis of expressed mRNA of yeast genes after 2 h culture with a toxic chemical substance
# Format: cell-based, Saccharomyces cerevisiae S288C
# Outline: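 Values are treated-to-control fluorescence ratios from a whole-yeast-genome DNA chip (65° C, over 12 h hybridization) using Cy3/Cy5-labelled cDNA from mRNA. Log-phase S288C cells in YPD at 25° C were exposed 2 h to a toxicant at sublethal, growth-inhibiting concentration.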
compound,measurement,setting,value
"S=C([S-])NCCNC(=S)[S-].[Zn+2] [(11), zinc N,N′-ethylenebis(dithiocarbamate)]",The level of expressed mRNA in the presence of chemical substance/absence: YML029W,gene YML029W,1.2
same,The level of expressed mRNA in the presence of chemical substance/absence: YML041C,gene YML041C,0.9
same,The level of expressed mRNA in the presence of chemical substance/absence: YML079W,gene YML079W,1.2
same,level of expressed mRNA in the presence of chemical substance/in its absence,gene YML110C,1.7
same,The level of expressed mRNA in the presence of chemical substance/absence: YML118W,gene YML118W,1.3
same,The level of expressed mRNA in the presence of chemical substance/absence: YMR068W,gene YMR068W,1.1
same,The level of expressed mRNA in the presence of chemical substance/absence: YMR071C,gene YMR071C,1.2
same,level of expressed mRNA in the presence of chemical substance/in its absence,gene YMR105C,3.0
same,The level of expressed mRNA in the presence of chemical substance/absence: YMR114C,gene YMR114C,1.0
same,The level of expressed mRNA in the presence of chemical substance/absence: YMR115W,gene YMR115W,1.1
same,The level of expressed mRNA in the presence of chemical substance/absence: YMR160W,gene YMR160W,1.0
same,level of expressed mRNA in the presence of chemical substance/in its absence,gene YMR189W,8.2
same,The level of expressed mRNA in the presence of chemical substance/absence: YMR258C,gene YMR258C,1.4
same,level of expressed mRNA in the presence of chemical substance/in its absence,gene YMR271C,1.7
same,level of expressed mRNA in the presence of chemical substance/in its absence,gene YMR272C,0.8
same,level of expressed mRNA in the presence of chemical substance/in its absence,gene YMR296C,0.8
same,level of expressed mRNA in the presence of chemical substance/in its absence,gene YNL012W,1.6
same,The level of expressed mRNA in the presence of chemical substance/absence: YNL026W,gene YNL026W,1.1
same,level of expressed mRNA in the presence of chemical substance/in its absence,gene YNL037C,1.4
same,level of expressed mRNA in the presence of chemical substance/in its absence,gene YNL045W,2.1
same,The level of expressed mRNA in the presence of chemical substance/absence: YNL058C,gene YNL058C,1.0
same,The level of expressed mRNA in the presence of chemical substance/absence: YNL063W,gene YNL063W,1.1
same,level of expressed mRNA in the presence of chemical substance/in its absence,gene YNL104C,2.1
same,level of expressed mRNA in the presence of chemical substance/in its absence,gene YNL106C,0.9
same,level of expressed mRNA in the presence of chemical substance/in its absence,gene YNL130C,1.5
same,level of expressed mRNA in the presence of chemical substance/in its absence,gene YNL169C,0.8
same,The level of expressed mRNA in the presence of chemical substance/absence: YNL176C,gene YNL176C,1.2
same,The level of expressed mRNA in the presence of chemical substance/absence: YNL181W,gene YNL181W,1.2
same,The level of expressed mRNA in the presence of chemical substance/absence: YNL191W,gene YNL191W,1.0
same,The level of expressed mRNA in the presence of chemical substance/absence: YNL194C,gene YNL194C,17.1
same,The level of expressed mRNA in the presence of chemical substance/absence: YNL200C,gene YNL200C,3.1
same,The level of expressed mRNA in the presence of chemical substance/absence: YNL212W,gene YNL212W,1.3
same,level of expressed mRNA in the presence of chemical substance/in its absence,gene YNL231C,1.3
same,The level of expressed mRNA in the presence of chemical substance/absence: YNL253W,gene YNL253W,0.8
same,The level of expressed mRNA in the presence of chemical substance/absence: YNL265C,gene YNL265C,0.9
same,The level of expressed mRNA in the presence of chemical substance/absence: YNL276C,gene YNL276C,0.7
same,level of expressed mRNA in the presence of chemical substance/in its absence,gene YNL322C,0.6
same,level of expressed mRNA in the presence of chemical substance/in its absence,gene YNR002C,1.6
same,level of expressed mRNA in the presence of chemical substance/in its absence,gene YNR019W,0.7
same,level of expressed mRNA in the presence of chemical substance/in its absence,gene YNR033W,0.4
same,The level of expressed mRNA in the presence of chemical substance/absence: YNR051C,gene YNR051C,1.5
same,level of expressed mRNA in the presence of chemical substance/in its absence,gene YNR059W,1.0
same,The level of expressed mRNA in the presence of chemical substance/absence: YOL026C,gene YOL026C,1.2
same,The level of expressed mRNA in the presence of chemical substance/absence: YOL030W,gene YOL030W,1.3
same,level of expressed mRNA in the presence of chemical substance/in its absence,gene YOL058W,2.3
same,level of expressed mRNA in the presence of chemical substance/in its absence,gene YOL126C,1.8
same,level of expressed mRNA in the presence of chemical substance/in its absence,gene YOL143C,2.0
same,level of expressed mRNA in the presence of chemical substance/in its absence,gene YOL153C,2.4
same,level of expressed mRNA in the presence of chemical substance/in its absence,gene YOL157C,1.2
same,The level of expressed mRNA in the presence of chemical substance/absence: YOR022C,gene YOR022C,1.7
same,The level of expressed mRNA in the presence of chemical substance/absence: YOR087W,gene YOR087W,1.3
same,The level of expressed mRNA in the presence of chemical substance/absence: YOR088W,gene YOR088W,0.8
same,level of expressed mRNA in the presence of chemical substance/in its absence,gene YOR099W,1.2
same,level of expressed mRNA in the presence of chemical substance/in its absence,gene YOR130C,0.6
same,level of expressed mRNA in the presence of chemical substance/in its absence,gene YOR136W,1.4
same,The level of expressed mRNA in the presence of chemical substance/absence: YOR138C,gene YOR138C,0.7
same,The level of expressed mRNA in the presence of chemical substance/absence: YOR155C,gene YOR155C,1.6
